This is an account of results in patent US20210221848A1, “POLYMYXIN DERIVATIVES AND THEIR USE IN COMBINATION THERAPY TOGETHER WITH DIFFERENT ANTIBIOTICS” (priority 2014, published 2021).

Where only a bound is given, the exact number is not on record here.

For assay [1], the system named is E. coli strains with elevated MICs to Polymyxin B. Nature of the assay: MIC against strains with elevated MICs to Polymyxin B. The format is cell-based, Escherichia coli. The settings on record: Table 6D; for MIC E. coli 058: strain 058, elevated MIC to Polymyxin B; for MIC E. coli 059: strain 059, elevated MIC to Polymyxin B; for MIC E. coli 060: strain 060, elevated MIC to Polymyxin B; for MIC E. coli 061: strain 061, elevated MIC to Polymyxin B. The essentials:
(§1)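 Colonies picked from an 18-24 hour Mueller-Hinton agar plate are suspended directly and adjusted to 0.5 McFarland. Each MIC is run in duplicate. Values within 2-fold give the lower one; wider spread voids the assay; repeated testing yields the modal value.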

For assay [2], the system named is K. pneumoniae strains with elevated MICs to Polymyxin B. The description is as above. The settings on record: Table 6D; for MIC K. pneumoniae 062: strain 062, elevated MIC to Polymyxin B; for MIC K. pneumoniae 063: strain 063, elevated MIC to Polymyxin B; for MIC K. pneumoniae 064: strain 064, elevated MIC to Polymyxin B; for MIC K. pneumoniae 655: strain 655, elevated MIC to Polymyxin B. Format: cell-based, Klebsiella pneumoniae. In outline: as §1

The test system of assay [3] is P. aeruginosa strains with elevated MICs to Polymyxin B. The description is as above. Format: cell-based, Pseudomonas aeruginosa. Conditions: Table 6D; for MIC P. aeruginosa 065: strain 065, elevated MIC to Polymyxin B; for MIC P. aeruginosa 066: strain 066, elevated MIC to Polymyxin B; for MIC P. aeruginosa 067: strain 067, elevated MIC to Polymyxin B. The essentials:
as §1

The test system of assay [4] is A. baumanii strains with elevated MICs to Polymyxin B. The description is as above. Conditions: Table 6D; for MIC A. baumannii 053: strain 053, elevated MIC to Polymyxin B; for MIC A. baumannii 056: strain 056, elevated MIC to Polymyxin B; for MIC A. baumannii 068: strain 068, elevated MIC to Polymyxin B; for MIC A. baumannii 070: strain 070, elevated MIC to Polymyxin B. Format: cell-based, Acinetobacter baumannii. In outline:
as §1

A further assay concerns E. coli. Conditions: sole activity, Table 6C.
Another assay concerns K. pneumoniae. Conditions: sole activity, Table 6C.
Another assay has as its system P. aeruginosa. The settings on record: sole activity, Table 6C.
In another assay the test system is A. baumannii. Conditions: sole activity, Table 6C.

With “5-(3- methylbutanamido) piperidine-3- carbonyl Polymyxin B nonapeptide [Example D64]”, in assay [1], the “MIC E. coli 058” value is listed as 64 micrograms/mL, the “MIC E. coli 059” value is reported as 128 micrograms/mL, the “MIC E. coli 060” value was 64 micrograms/mL and the “MIC E. coli 061” value was 64 micrograms/mL. Besides, in assay [2], the “MIC K. pneumoniae 062” value was above 256 micrograms/mL, the “MIC K. pneumoniae 063” value is above 256 micrograms/mL and the “MIC K. pneumoniae 064” value is reported as 128 micrograms/mL. Besides, in assay [3], the “MIC P. aeruginosa 065” value is on record as 64 micrograms/mL, the “MIC P. aeruginosa 066” value is 64 micrograms/mL and the “MIC P. aeruginosa 067” value is on record as above 256 micrograms/mL. In assay [4], the “MIC A. baumannii 053” value is above 256 micrograms/mL, the “MIC A. baumannii 056” value came out at 256 micrograms/mL, the “MIC A. baumannii 068” value stood at 128 micrograms/mL and the “MIC A. baumannii 070” value is listed as above 256 micrograms/mL. Besides, in the assay with E. coli, the “MIC, E. coli ATCC 25922” value stood at 0.25 micrograms/mL and the “MIC, E. coli NCTC 13441” value was 0.25 micrograms/mL. In the assay with K. pneumoniae, the “MIC, K. pneumoniae ATCC 4352” value is recorded as 0.25 micrograms/mL and the “MIC, K. pneumoniae ATCC BAA-2146” value is reported as 0.25 micrograms/mL. For the same substance, in the assay on P. aeruginosa, the “MIC, P. aeruginosa ATCC 27853” value is recorded as 1 micrograms/mL and the “MIC, P. aeruginosa CCUG 59347” value was determined as 1 micrograms/mL. Further, in the assay with A. baumannii, the “MIC, A. baumannii ATCC BAA-747” value amounted to 2 micrograms/mL and the “MIC, A. baumannii NCTC 13424” value is recorded as 2 micrograms/mL.
For the substance “(S)-1-isobutyl piperazine-2- carbonyl-L-Thr- L-Dap-polymyxin B heptapeptide [Example D69]”, in assay [1], the “MIC E. coli 058” value came to 8 micrograms/mL, the “MIC E. coli 059” value came to 16 micrograms/mL, the “MIC E. coli 060” value turned out to be 8 micrograms/mL and the “MIC E. coli 061” value is 32 micrograms/mL. In assay [2], the “MIC K. pneumoniae 063” value turned out to be 128 micrograms/mL and the “MIC K. pneumoniae 064” value is recorded as 32 micrograms/mL. Further, in assay [3], the “MIC P. aeruginosa 065” value is 16 micrograms/mL, the “MIC P. aeruginosa 066” value is recorded as 32 micrograms/mL and the “MIC P. aeruginosa 067” value is given as above 256 micrograms/mL. In addition, in assay [4], the “MIC A. baumannii 053” value is above 256 micrograms/mL, the “MIC A. baumannii 056” value is on record as 256 micrograms/mL and the “MIC A. baumannii 068” value is recorded as 32 micrograms/mL. Besides, in the assay with E. coli, the “MIC, E. coli ATCC 25922” value turned out to be 0.25 micrograms/mL and the “MIC, E. coli NCTC 13441” value is given as 0.125 micrograms/mL. Further, in the assay with K. pneumoniae, the “MIC, K. pneumoniae ATCC 4352” value is recorded as 0.125 micrograms/mL. In the assay on P. aeruginosa, the “MIC, P. aeruginosa ATCC 27853” value was determined as 0.5 micrograms/mL and the “MIC, P. aeruginosa CCUG 59347” value is recorded as 0.5 micrograms/mL. For the same substance, in the assay on A. baumannii, the “MIC, A. baumannii ATCC BAA-747” value was 0.25 micrograms/mL and the “MIC, A. baumannii NCTC 13424” value stood at 0.5 micrograms/mL.
For the substance “(S)-3-amino-2- ((2- trifluoromethylben- zyl)amino)propa- noyl L-Thr-L- Dap-polymyxin B heptapeptide [Example D76]”, in assay [1], the “MIC E. coli 058” value came out at 4 micrograms/mL, the “MIC E. coli 059” value amounted to 6 micrograms/mL, the “MIC E. coli 060” value was found to be 2 micrograms/mL and the “MIC E. coli 061” value is 8 micrograms/mL. For the same substance, in assay [2], the “MIC K. pneumoniae 062” value is on record as 64 micrograms/mL, the “MIC K. pneumoniae 063” value stood at 16 micrograms/mL, the “MIC K. pneumoniae 064” value stood at 2 micrograms/mL and the “MIC K. pneumoniae 655” value turned out to be 16 micrograms/mL. Moreover, in assay [3], the “MIC P. aeruginosa 065” value was found to be 2 micrograms/mL, the “MIC P. aeruginosa 066” value is 2 micrograms/mL and the “MIC P. aeruginosa 067” value is 64 micrograms/mL. Further, in assay [4], the “MIC A. baumannii 053” value is 64 micrograms/mL, the “MIC A. baumannii 056” value is given as 16 micrograms/mL, the “MIC A. baumannii 068” value is recorded as 8 micrograms/mL and the “MIC A. baumannii 070” value is reported as 16 micrograms/mL. Moreover, in the assay on E. coli, the “MIC, E. coli ATCC 25922” value stood at 0.125 micrograms/mL and the “MIC, E. coli NCTC 13441” value is reported as 0.25 micrograms/mL. In the assay on K. pneumoniae, the “MIC, K. pneumoniae ATCC 4352” value is listed as 0.06 micrograms/mL and the “MIC, K. pneumoniae ATCC BAA-2146” value turned out to be 0.125 micrograms/mL. Further, in the assay with P. aeruginosa, the “MIC, P. aeruginosa ATCC 27853” value is on record as 0.25 micrograms/mL and the “MIC, P. aeruginosa CCUG 59347” value was 0.25 micrograms/mL. In the assay on A. baumannii, the “MIC, A. baumannii ATCC BAA-747” value is recorded as 0.06 micrograms/mL and the “MIC, A. baumannii NCTC 13424” value was found to be 0.25 micrograms/mL.
On to “(S)-4-amino-2- ((2- trifluoromethyben- zyl)amino)butanoyl L-Thr-L-Dap- polymyxin B heptapeptide [Example D88]”, for which, in assay [1], the “MIC E. coli 058” value stood at 2 micrograms/mL, the “MIC E. coli 059” value was found to be 8 micrograms/mL, the “MIC E. coli 060” value worked out at 4 micrograms/mL and the “MIC E. coli 061” value came to 16 micrograms/mL. Further, in assay [2], the “MIC K. pneumoniae 062” value is on record as 32 micrograms/mL, the “MIC K. pneumoniae 063” value is recorded as 16 micrograms/mL, the “MIC K. pneumoniae 064” value is listed as 1 micrograms/mL and the “MIC K. pneumoniae 655” value came to 16 micrograms/mL. In assay [3], the “MIC P. aeruginosa 065” value was determined as 0.25 micrograms/mL, the “MIC P. aeruginosa 066” value came to 1 micrograms/mL and the “MIC P. aeruginosa 067” value is given as above 64 micrograms/mL. Also, in assay [4], the “MIC A. baumannii 053” value is on record as above 64 micrograms/mL, the “MIC A. baumannii 056” value is 32 micrograms/mL, the “MIC A. baumannii 068” value is given as 8 micrograms/mL and the “MIC A. baumannii 070” value amounted to 16 micrograms/mL. The “MIC, E. coli ATCC 25922” value against E. coli was 0.06 micrograms/mL. Further, in the assay with K. pneumoniae, the “MIC, K. pneumoniae ATCC 4352” value was found to be 0.06 micrograms/mL. Also, in the assay on P. aeruginosa, the “MIC, P. aeruginosa ATCC 27853” value came to 0.125 micrograms/mL and the “MIC, P. aeruginosa CCUG 59347” value is 0.5 micrograms/mL. For the same substance, in the assay with A. baumannii, the “MIC, A. baumannii ATCC BAA-747” value was 0.06 micrograms/mL and the “MIC, A. baumannii NCTC 13424” value is 0.06 micrograms/mL.
With “(S)-4-amino-2- (((S)-6- methyloctyl)amino) butanoyl polymyxin B nonapeptide [Example D90]”, in assay [1], the “MIC E. coli 058” value was 2 micrograms/mL, the “MIC E. coli 059” value amounted to 2 micrograms/mL, the “MIC E. coli 060” value worked out at 2 micrograms/mL and the “MIC E. coli 061” value came out at 8 micrograms/mL. Also, in assay [2], the “MIC K. pneumoniae 062” value is 16 micrograms/mL, the “MIC K. pneumoniae 063” value stood at 32 micrograms/mL, the “MIC K. pneumoniae 064” value was found to be 4 micrograms/mL and the “MIC K. pneumoniae 655” value was 16 micrograms/mL. Moreover, in assay [3], the “MIC P. aeruginosa 065” value turned out to be 0.25 micrograms/mL, the “MIC P. aeruginosa 066” value turned out to be 8 micrograms/mL and the “MIC P. aeruginosa 067” value is listed as 32 micrograms/mL. In assay [4], the “MIC A. baumannii 053” value was 32 micrograms/mL, the “MIC A. baumannii 056” value worked out at 8 micrograms/mL, the “MIC A. baumannii 068” value was 2 micrograms/mL and the “MIC A. baumannii 070” value turned out to be 2 micrograms/mL. For the same substance, the “MIC, E. coli ATCC 25922” value with E. coli turned out to be 0.25 micrograms/mL. The “MIC, K. pneumoniae ATCC 4352” value in the assay with K. pneumoniae worked out at 0.25 micrograms/mL. In the assay with P. aeruginosa, the “MIC, P. aeruginosa ATCC 27853” value is on record as 0.5 micrograms/mL and the “MIC, P. aeruginosa CCUG 59347” value is recorded as 0.25 micrograms/mL. Moreover, in the assay on A. baumannii, the “MIC, A. baumannii ATCC BAA-747” value came to 0.25 micrograms/mL and the “MIC, A. baumannii NCTC 13424” value worked out at 0.25 micrograms/mL.
